Common to all, as to format: functional
For one test, the system named is Bacillus subtilis. The test is described as follows: Antibacterial activity against Bacillus subtilis.
Test [1] deals with Staphylococcus aureus. The test is described as follows: Antibacterial activity against Staphylococcus aureus.
Test [2] concerns Pseudomonas aeruginosa. Briefly: Antibacterial activity against Pseudomonas aeruginosa.
The test system of the next test is Candida albicans. The test is described as follows: Antifungal activity against Candida albicans.
Test [3] relates to Escherichia coli. Briefly: Antibacterial activity against Escherichia coli.
Test [4] deals with Pseudomonas aeruginosa. Briefly: Antibacterial activity against Pseudomonas aeruginosa after 24 hrs.
The test system of test [5] is Escherichia coli. Briefly: Antibacterial activity against Escherichia coli ATCC 25922 after 24 hrs. Conditions: ATCC 25922, 24 h.
Another test relates to Enterococcus faecalis. The test is described as follows: Antibacterial activity against Enterococcus faecalis after 24 hrs.
For test [6], the system named is Staphylococcus aureus. The test is described as follows: Antibacterial activity against methicillin-resistant Staphylococcus aureus after 24 hrs.
The subject of test [7] is Staphylococcus aureus. The test is described as follows: Antibacterial activity against Staphylococcus aureus ATCC 25923 after 24 hrs. Conditions: ATCC 25923, 24 h.
Test [8] has as its system Pseudomonas aeruginosa. The test is described as follows: Antibacterial activity against Pseudomonas aeruginosa ATCC 27853 after 24 hrs. Conditions: ATCC 27853, 24 h.
Test [9] has as its system Staphylococcus aureus. Briefly: Antibacterial activity against Staphylococcus aureus ATCC 29213 after 24 hrs. Conditions: ATCC 29213, 24 h.
A further test relates to Klebsiella pneumoniae. The test is described as follows: Antibacterial activity against Klebsiella pneumoniae after 24 hrs.

In general, MIC refers to the lowest concentration found to suppress growth.

Converted amounts (≈) assume the structure as drawn.

On to `CC(=O)N1N=C(Cn2c([N+](=O)[O-])cnc2C)OC1(C)c1ccc([N+](=O)[O-])cc1` (stereo unspecified), for which the MIC fell in the range of 0.25 to 0.5 µg/mL (≈ 0.644 to 1.29 µM) against Bacillus subtilis; 0.25 to 0.5 µg/mL against Staphylococcus aureus [1]; 0.25 to 0.5 µg/mL (≈ 0.644 to 1.29 µM) with Pseudomonas aeruginosa [2]; 0.25 to 0.5 µg/mL (≈ 0.644 to 1.29 µM) against Candida albicans; 0.25 to 0.5 µg/mL (≈ 0.644 to 1.29 µM) with Escherichia coli [3].

Turning to `Cc1nc([N+](=O)[O-])cn1Cc1nn(CN2CCNCC2)c(=S)o1`, in the test with Staphylococcus aureus [1], the minimal inhibitory concentration (MIC) came to 184 µM.

As for `COc1cc(/C=C(\C#N)n2cc([N+](=O)[O-])nc2C)c2c(c1OCCO)CN1CCc3cc4c(cc3C1C2)OCO4` (stereo unspecified), the MIC against Pseudomonas aeruginosa [4], with Escherichia coli [5], with Enterococcus faecalis, in the test with Staphylococcus aureus [6], against Staphylococcus aureus [7] and in the test with Pseudomonas aeruginosa [8] was 3 to 1020 µM (≈ 1.64 to 557 µg/mL) each time. Also, the MIC against Staphylococcus aureus [9] and in the test on Klebsiella pneumoniae was 3 to 1020 µM (≈ 1.64 to 557 µg/mL) each time.

Take `C#CCOc1c(OC)cc(/C=C(\C#N)n2cc([N+](=O)[O-])nc2C)c2c1CN1CCc3cc4c(cc3C1C2)OCO4` (stereo unspecified): the MIC in the test on Pseudomonas aeruginosa [4], against Escherichia coli [5], against Enterococcus faecalis, against Staphylococcus aureus [6], against Staphylococcus aureus [7] and against Pseudomonas aeruginosa [8] was 3 to 1020 µM (≈ 1.62 to 551 µg/mL) each time. The MIC in the test on Staphylococcus aureus [9] and with Klebsiella pneumoniae was 3 to 1020 µM (≈ 1.62 to 551 µg/mL) in each case.

For the compound `COc1ccc(C2(C)OC(Cn3c([N+](=O)[O-])cnc3C)=NN2C(C)=O)cc1` (stereo unspecified), the minimal inhibitory concentration (MIC) in the test with Bacillus subtilis was in the range of 0.25 to 0.5 µg/mL (≈ 0.67 to 1.34 µM); against Staphylococcus aureus [1], 0.25 to 0.5 µg/mL; in the test with Pseudomonas aeruginosa [2], 0.25 to 0.5 µg/mL (≈ 0.67 to 1.34 µM); against Candida albicans it was 0.25 to 0.5 µg/mL (≈ 0.67 to 1.34 µM); against Escherichia coli [3], 0.25 to 0.5 µg/mL (≈ 0.67 to 1.34 µM).

As for `COc1cc(/C=C(\C#N)n2cc([N+](=O)[O-])nc2C)c2c(c1OCc1ccc(Cl)cc1Cl)CN1CCc3cc4c(cc3C1C2)OCO4` (stereo unspecified), the MIC against Pseudomonas aeruginosa [4], against Escherichia coli [5], against Enterococcus faecalis, against Staphylococcus aureus [6], in the test on Staphylococcus aureus [7] and in the test with Pseudomonas aeruginosa [8] was 3 to 1020 µM (≈ 1.98 to 674 µg/mL) in each case. In addition, the MIC with Staphylococcus aureus [9] and in the test with Klebsiella pneumoniae was 3 to 1020 µM (≈ 1.98 to 674 µg/mL) in each case.

Turning to `CCCCCCOc1c(OC)cc(/C=C(\C#N)n2cc([N+](=O)[O-])nc2C)c2c1CN1CCc3cc4c(cc3C1C2)OCO4` (stereo unspecified), the MIC with Pseudomonas aeruginosa [4], against Escherichia coli [5], against Enterococcus faecalis, with Staphylococcus aureus [6], with Staphylococcus aureus [7] and in the test with Pseudomonas aeruginosa [8] was 3 to 1020 µM (≈ 1.76 to 598 µg/mL) in each case. Also, the MIC with Staphylococcus aureus [9] and in the test on Klebsiella pneumoniae was 3 to 1020 µM (≈ 1.76 to 598 µg/mL) each time.

Consider `COc1ccc2cc3[n+](cc2c1OC)CCc1cc2c(cc1-3)OCO2` [BERBERINE], for which the MIC with Pseudomonas aeruginosa [4], against Escherichia coli [5], against Enterococcus faecalis, with Staphylococcus aureus [6], with Staphylococcus aureus [7] and against Pseudomonas aeruginosa [8] was 11 to 688 µM throughout. Besides, the MIC against Staphylococcus aureus [9] and against Klebsiella pneumoniae was 11 to 688 µM each time.

Consider `CCCCCCCCCCOc1c(OC)cc(/C=C(\C#N)n2cc([N+](=O)[O-])nc2C)c2c1CN1CCc3cc4c(cc3C1C2)OCO4` (stereo unspecified), for which the MIC against Pseudomonas aeruginosa [4], in the test with Escherichia coli [5], in the test with Enterococcus faecalis, in the test on Staphylococcus aureus [6], in the test with Staphylococcus aureus [7] and against Pseudomonas aeruginosa [8] was 3 to 1020 µM (≈ 1.93 to 655 µg/mL) each time. For the same compound, the MIC with Staphylococcus aureus [9] and with Klebsiella pneumoniae was 3 to 1020 µM (≈ 1.93 to 655 µg/mL) each time.

As to `CC(=O)N1N=C(Cn2c([N+](=O)[O-])cnc2C)OC1(C)c1ccc(C)cc1` (stereo unspecified), the MIC in the test on Bacillus subtilis was 0.25 to 0.5 µg/mL (≈ 0.7 to 1.4 µM); in the test on Staphylococcus aureus [1], 0.25 to 0.5 µg/mL; in the test with Pseudomonas aeruginosa [2], 0.25 to 0.5 µg/mL (≈ 0.7 to 1.4 µM); with Candida albicans, 0.25 to 0.5 µg/mL (≈ 0.7 to 1.4 µM); against Escherichia coli [3], 0.25 to 0.5 µg/mL (≈ 0.7 to 1.4 µM).

Take `COc1cc(/C=C(\C#N)n2cc([N+](=O)[O-])nc2C)c2c(c1OCC#N)CN1CCc3cc4c(cc3C1C2)OCO4` (stereo unspecified): the MIC in the test with Pseudomonas aeruginosa [4], in the test with Escherichia coli [5], in the test on Enterococcus faecalis, in the test on Staphylococcus aureus [6], against Staphylococcus aureus [7] and against Pseudomonas aeruginosa [8] was 3 to 1020 µM (≈ 1.62 to 552 µg/mL) throughout. The MIC in the test with Staphylococcus aureus [9] and in the test with Klebsiella pneumoniae was 3 to 1020 µM (≈ 1.62 to 552 µg/mL) in each case.

As for `C=CCOc1c(OC)cc(/C=C(\C#N)n2cc([N+](=O)[O-])nc2C)c2c1CN1CCc3cc4c(cc3C1C2)OCO4` (stereo unspecified), the MIC in the test on Pseudomonas aeruginosa [4], against Escherichia coli [5], against Enterococcus faecalis, in the test with Staphylococcus aureus [6], in the test with Staphylococcus aureus [7] and with Pseudomonas aeruginosa [8] was 3 to 1020 µM (≈ 1.62 to 553 µg/mL) in each case. The MIC in the test on Staphylococcus aureus [9] and in the test with Klebsiella pneumoniae was 3 to 1020 µM (≈ 1.62 to 553 µg/mL) each time.

For `CCCCOc1c(OC)cc(/C=C(\C#N)n2cc([N+](=O)[O-])nc2C)c2c1CN1CCc3cc4c(cc3C1C2)OCO4` (stereo unspecified), the MIC in the test on Pseudomonas aeruginosa [4], in the test with Escherichia coli [5], with Enterococcus faecalis, in the test on Staphylococcus aureus [6], with Staphylococcus aureus [7] and against Pseudomonas aeruginosa [8] was 3 to 1020 µM (≈ 1.67 to 569 µg/mL) throughout. Besides, the MIC with Staphylococcus aureus [9] and in the test with Klebsiella pneumoniae was 3 to 1020 µM (≈ 1.67 to 569 µg/mL) in each case.

With `COc1cc(/C=C(\C#N)n2cc([N+](=O)[O-])nc2C)c2c(c1OCC(C)=O)CN1CCc3cc4c(cc3C1C2)OCO4` (stereo unspecified), the minimal inhibitory concentration (MIC) against Pseudomonas aeruginosa [4], in the test with Escherichia coli [5], in the test with Enterococcus faecalis, against Staphylococcus aureus [6], in the test on Staphylococcus aureus [7] and in the test with Pseudomonas aeruginosa [8] was 3 to 1020 µM (≈ 1.67 to 569 µg/mL) throughout. Moreover, the MIC in the test with Staphylococcus aureus [9] and against Klebsiella pneumoniae was 3 to 1020 µM (≈ 1.67 to 569 µg/mL) each time.

The values are drawn from ChEMBL document CHEMBL4304773, “Nitroimidazole-containing compounds and their antibacterial and antitubercular activities” (2019).
